Laboratory results reported in paper PMC6600665, “Identification and Characterization of Approved Drugs and Drug-Like Compounds as Covalent Escherichia coli ClpP Inhibitors” (International Journal of Molecular Sciences, 2019).
Peptide text beside a SMILES is read from it.

Experiments:
E. coli ClpP [1] = molecular target: T1, E. coli ClpP (Escherichia coli, UniProt P0A6G7); test: Fluorescence-based E. coli ClpP proteolytic activity assay (Suc-LY-AMC), primary screen and dose-response; assay type: biochemical; details: for inhibition at 200 µM: read-out: E. coli ClpP inhibition [%] in the primary screen, primary screen, 200 µM; for Inhibition (%) at 200 μM E. coli ClpP: 200 μM compound concentration; for IC50: read-out: E. coli ClpP IC50
T1 construct: His-tag; made in house; host or cells: E. coli SG1146a
T1 sequence (P0A6G7 15-207): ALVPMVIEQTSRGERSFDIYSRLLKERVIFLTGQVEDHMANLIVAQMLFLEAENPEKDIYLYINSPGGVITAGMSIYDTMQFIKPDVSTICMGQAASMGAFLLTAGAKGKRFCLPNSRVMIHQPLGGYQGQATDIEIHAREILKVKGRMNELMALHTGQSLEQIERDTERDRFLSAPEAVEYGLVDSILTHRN
Method: Briefly, 25 ng/μL of E. coli ClpP dissolved in a buffer containing 100 mM NaCl, 100 mM 4-(2-hydroxyethyl)-1-piperazineethanesulfonic acid (HEPES) pH 7.5, and 0.05% Brij® 35 were transferred into each well. Test compound addition (final concentration 200 µM) was carried out using an Echo® 550 liquid handling system (Labcyte, Sunnyvale, CA, USA). […] Changes in fluorescence (excitation 350 nm, emission 435 nm) were monitored at 1 min intervals at 30 °C over 1 h using an Infinite M1000 microplate reader (Tecan).
The assay was carried out as described above with increasing concentrations of test compounds. Dose-response experiments were done at least 3 times independently, each in technical triplicates.
Calculation of Z prime (Z’) for HTS assay performance was done according to Zhang et al.. Plates were considered for further analyses if Z’ > 0.6 [26].

A549 cells = test: in vitro; assay type: cell-based; details: for IC50: 48 h incubation, 1:3 dilutions starting from 200 μM, read-out: Cytotoxicity A549 IC50
Method: (§1) Potential cell toxicity of the tested compounds was evaluated by ATP quantification using the CellTiter-Glo® luminescent cell viability assay (Promega, Madison, WI, USA). […] After incubation, 20 µL of CellTiter-Glo® reagent were added per well and incubated at room temperature in the dark for another 30 min. Luminescence was quantified by an EnVision multi-plate reader (PerkinElmer, Rodgau, Germany).

HTC-116 cells = test: in vitro; assay type: cell-based; details: for IC50: 48 h incubation, 1:3 dilutions starting from 200 μM, read-out: Cytotoxicity HTC-116 IC50
Method: as §1

MCF-7 cells = test: in vitro; assay type: cell-based; details: for IC50: 48 h incubation, 1:3 dilutions starting from 200 μM, read-out: Cytotoxicity MCF-7 IC50
Method: as §1

[2] = test system: E. coli BW25-113 (wild type); test: Growth delay under nitric oxide stress (DPTA NONOate) in M9 medium, wild type; assay type: cell-based; details: M9 minimal medium
Method: (§2) Assessment of E. coli growth delay in presence of nitric oxide stress was carried out following our recently published protocol, which is an adaptation of the method reported by Robinson and Brynildsen to a 96-well plate format. Fresh MHB medium was inoculated with isolated colonies of E. coli BW25-113 or E. coli JW0427-1, grown on Luria Agar, and left overnight in a shaking incubator (250 rpm) at 37 °C. On the following day, the overnight culture was used to inoculate fresh M9 medium (supplemented with 10 mM glucose) 1:100, and was grown until OD600 ~0.3. Afterwards, the culture was transferred into 96-well, flat-bottom, sterile clear plates (#167008, Nunc, VWR). Bacterial OD600 was adjusted to 0.1 with M9 medium (supplemented with 10 mM glucose). Test compounds were transferred into the 96-well plates, followed by addition of the bacterial culture. Nitric oxide stress was induced by addition of 2 mM DPTA NONOate ((Z)-1-[N-(3-aminopropyl)-N-(3-ammoniopropyl)amino]diazen-1-ium-1,2-diolate, Cayman Chemical, Ann Arbor, MI, USA), dissolved in NaOH (final concentration 0.14 mM). Absorbance measurements (600 nm) were done with a Multiskan GO or Varioskan LUX plate reader (Thermo Fisher Scientific, Finland) at hourly intervals for 24 h. Between measurements, plates were incubated in a shaking incubator (500 rpm) at 37 °C.

E. coli ClpP [3] = molecular target: T1, E. coli ClpP; test: Surface plasmon resonance binding to immobilized ClpP; details: 80 µM, injected over 7 min, 30 min dissociation
Method: E. coli ClpP (80 μg/mL) protein was immobilized, using amine coupling (SPR-AS-HCA-03, Bruker Daltonics Inc., Billerica, MA, USA), onto the surface of the sensor chip of a SIERRA SPR-16 instrument (Bruker Daltonics GmbH, Bremen, Germany). ClpP protein was dissolved in acetate at pH 4. The running buffer contained 150 mM NaCl, 10 mM Hepes, 3 mM EDTA, and 0.05% (v/v) Tween-20. The flow rate for protein immobilization was 10 μL/min. Binding experiments were carried out using running buffer with the addition of 0.8% (v/v) of DMSO and 80 µM test substance (flow rate of 20 μL/min for 7 min and up to 30 min of dissociation time). […] SPR data were analyzed using the Analyzer 3 software (Bruker Daltonics GmbH), which includes algorithms for subtracting reference signals and accounting for non-specific interactions between the solvent and the sensor chip surface.

E. coli JW0427 (ΔclpP) = test: Growth delay under nitric oxide stress (DPTA NONOate) in M9 medium, clpP-deficient strain; assay type: cell-based
Method: as §2

[4] = dose-response, 1:3 dilution starting from 200 μM, substrate Suc-LY-AMC

## O=C(O)C1CCCCC1C(=O)Nc1ccc(S(=O)(=O)NC2CCCCC2)cc1 (stereo not shown) [2-({4-[(cyclohexylamino)sulfonyl]anilino}carbonyl)cyclohexanecarboxylic acid]
E. coli ClpP [1]; primary screen, 200 µM
  E. coli ClpP inhibition [%] in the primary screen: 72.93%

## O=C(CCC1CCCC1)NCCN1CCOCC1 [3-cyclopentyl-N-[2-(4-morpholinyl)ethyl]propanamide]
E. coli ClpP [1]; primary screen, 200 µM
  E. coli ClpP inhibition [%] in the primary screen: 84.44%

## CCc1ccc(/C=C2/SC(=S)NC2=O)cc1 [10058-F4]
E. coli ClpP [1]; primary screen, 200 µM
  E. coli ClpP inhibition [%] in the primary screen: 72.82%

## COC(=O)N[C@H](C(=O)N[C@@H](Cc1ccccc1)[C@@H](O)CN(Cc1ccc(-c2ccccn2)cc1)NC(=O)[C@@H](NC(=O)OC)C(C)(C)C)C(C)(C)C [Atazanavir]
E. coli ClpP [1]
  inhibition at 200 µM: 85%

## O=C(O)CCNC(=O)c1ccc(/N=N/c2ccc(O)c(C(=O)O)c2)cc1 [Balsalazide]
E. coli ClpP [1]
  inhibition at 200 µM: 76.5%

## O=C(/C=C/c1ccc(O)cc1)CC(=O)/C=C/c1ccc(O)cc1 [Bisdemethoxycurcumin]
E. coli ClpP [1]
  inhibition at 200 µM: 76.5%

## N.N.[Cl][Pt][Cl] [Cisplatin, cisplatin]
A549 cells
  IC50: 86.7 µM
HTC-116 cells
  IC50: 913 µM
MCF-7 cells
  IC50: 4.52 µM
[2]; WT E. coli, 50 μM compound plus DPTA NONOate
  Growth arrest in presence of DPTA NONOate: ~ 10 h
[2]; WT E. coli, 50 μM compound
  Bacterial growth in absence of NO• stress: comparable to the untreated bacteria
[2]; WT E. coli, 100 μM compound
  Bacterial growth in absence of NO• stress: affected bacterial growth
E. coli ClpP [3]
  SPR signal (resonance units, RU): high RU values
E. coli JW0427 (ΔclpP); clpP-deficient E. coli, DPTA NONOate, compared with cells without compound
  Growth delay in presence of nitric oxide stress: significantly longer growth delay
E. coli ClpP [1]
  Inhibition (%) at 200 μM E. coli ClpP: 96.5%
E. coli ClpP [1]; 200 μM, cisplatin was a hit in both screened libraries, second value of the cell
  Inhibition (%) at 200 μM E. coli ClpP, second value: 98.7%
E. coli ClpP [1]; [4]
  IC50: 31 µM
E. coli ClpP [1]; primary screen, 200 µM
  E. coli ClpP inhibition [%] in the primary screen: 96.54%
E. coli ClpP [1]; primary screen, 200 µM, cisplatin present in two libraries (SCREEN-WELL, LOPAC1280), second value
  E. coli ClpP inhibition [%] in the primary screen, second library: 98.67%
E. coli ClpP [1]; primary screen, 200 µM, listed as cisplatin
  E. coli ClpP inhibition [%] in the primary screen: > 90%

## NCCCN(CCCN)/[N+]([O-])=N/O [DPTA NONOate, (Z)-1-[N-(3-aminopropyl)-N-(3-ammoniopropyl)amino]diazen-1-ium-1,2-diolate]
[2]; wild-type strain, 2 mM DPTA NONOate, no test compound
  Growth arrest by the NO• donor alone: ~ 3 h
E. coli JW0427 (ΔclpP); ΔclpP E. coli, 2 mM DPTA NONOate, no test compound, M9 minimal medium
  Growth arrest by the NO• donor alone: ~ 4 h

## CCOC(=O)[C@@H](N)CCC(=O)N[C@@H](CSCc1ccccc1)C(=O)N[C@@H](C(=O)OCC)c1ccccc1 [Ezatiostat]
E. coli ClpP [1]; primary screen, 200 µM
  E. coli ClpP inhibition [%] in the primary screen: 88.80%

## O=c1c(O)c(-c2cc(O)c(O)c(O)c2)oc2cc(O)cc(O)c12 [Myricetin]
E. coli ClpP [1]
  inhibition at 200 µM: 76%

## CC(=O)Oc1ccccc1C(=O)Nc1ncc([N+](=O)[O-])s1 [Nitazoxanide]
E. coli ClpP [1]
  inhibition at 200 µM: 80%

## CC1=C(/C=C/C(C)=C/C=C/C(C)=C/C(=O)Nc2ccc(O)cc2)C(C)(C)CCC1 [Retinoic acid p-hydroxyanilide]
E. coli ClpP [1]; primary screen, 200 µM
  E. coli ClpP inhibition [%] in the primary screen: 74.12%

## CO[C@H]1/C=C/O[C@@]2(C)Oc3c(C)c(O)c4c(O)c(c(/C=N/N5CCN(C6CCCC6)CC5)c(O)c4c3C2=O)NC(=O)/C(C)=C\C=C\[C@H](C)[C@H](O)[C@@H](C)[C@@H](O)[C@@H](C)[C@H](OC(C)=O)[C@@H]1C [Rifapentine]
E. coli ClpP [1]
  inhibition at 200 µM: 71.5%

## C[n+]1ccccc1CC(=O)c1ccc(Br)cc1.[I-] [S 24795]
E. coli ClpP [1]; primary screen, 200 µM
  E. coli ClpP inhibition [%] in the primary screen: 76.27%

## O=C(O)Cn1c(C(=O)Nc2nc(-c3ccccc3Cl)cs2)cc2ccccc21 [SR 27897 hydrate]
E. coli ClpP [1]; primary screen, 200 µM
  E. coli ClpP inhibition [%] in the primary screen: 84.71%

## O=C(O)c1cc(/N=N/c2ccc(S(=O)(=O)Nc3ccccn3)cc2)ccc1O [Sulfasalazine]
E. coli ClpP [1]
  inhibition at 200 µM: 77.3%

## CCN(CC)CCNC(=O)c1c(C)[nH]c(/C=C2\C(=O)Nc3ccc(F)cc32)c1C [Sunitinib Malate]
E. coli ClpP [1]
  inhibition at 200 µM: 80.7%

## N#CC(C#N)=Cc1ccc(O)c(O)c1 [Tyrphostin 23]
E. coli ClpP [1]
  inhibition at 200 µM: 79.3%

## N#CC(C#N)=C(N)/C(C#N)=C/c1cc(O)c(O)c(O)c1 [Tyrphostin 51]
E. coli ClpP [1]
  inhibition at 200 µM: 72.8%

## CC(C)C[C@H](NC(=O)OCc1ccccc1)C(=O)N[C@@H](Cc1ccc(O)cc1)C(=O)CCl [Z-LY-CMK, benzyloxycarbonyl-leucyl-tyrosine chloromethyl ketone] (HELM PEPTIDE1{[O=C(OCc1ccccc1)[*:2]].L.Y.[ClC[*:1]]}$$$$V2.0)
A549 cells
  IC50: 7.15 µM
A549 cells; A549
  Cytotoxicity A549 Ratio (IC50 cytotoxicity/IC50 ClpP): 0.51
HTC-116 cells
  IC50: 3.54 µM
HTC-116 cells; HTC-116
  Cytotoxicity HTC-116 Ratio (IC50 cytotoxicity/IC50 ClpP): 0.25
MCF-7 cells
  IC50: 0.05 µM
MCF-7 cells; MCF-7
  Cytotoxicity MCF-7 Ratio (IC50 cytotoxicity/IC50 ClpP): 0
E. coli ClpP [3]
  Covalent / irreversible binding to ClpP by SPR: irreversibly binding
E. coli ClpP [1]
  Inhibition (%) at 200 μM E. coli ClpP: 98.6%
E. coli ClpP [1]; [4]
  IC50: 14 µM

## Cn1c(=O)c2c(ncn2C)n(C)c1=O [caffeine]
E. coli ClpP [3]
  Covalent / irreversible binding to ClpP by SPR: did not show any interaction

## N.N.O=C([O-])C1(C(=O)[O-])CCC1.[Pt+2] [carboplatin]
E. coli ClpP [1]; primary screen, 200 µM
  E. coli ClpP inhibition [%] in the primary screen: 5.4%

## CO[C@@]1(NC(=O)C2SC(=C(C(N)=O)C(=O)O)S2)C(=O)N2C(C(=O)O)=C(CSc3nnnn3C)CS[C@@H]21 (stereo partly shown) [cefotetan]
E. coli ClpP [1]
  inhibition at 200 µM: -4.6 to 19.3%

## CO/N=C(\C(=O)N[C@@H]1C(=O)N2C(C(=O)O)=C(CSc3nc(=O)c(=O)[nH]n3C)CS[C@H]12)c1csc(N)n1 [ceftriaxone]
E. coli ClpP [1]
  inhibition at 200 µM: -4.6 to 19.3%

## N=C(N)N/N=C/c1c(Cl)cccc1Cl [guanabenz]
E. coli ClpP [1]; [4]
  E. coli ClpP IC50: did not confirm as ClpP inhibitor
E. coli ClpP [1]; primary screen, 200 µM
  E. coli ClpP inhibition [%] in the primary screen: > 90%
E. coli ClpP [1]
  inhibition at 200 µM: 100%
